The structures appear in SMILES notation.

For series [1], the target named is T1, Serotonin (5-Hydroxytryptamine) 5-HT1A (Homo sapiens, UniProt P08908).
T1 construct: purchased Eurofins-Panlabs (contract screen SafetyScreen44) assay ID 271110
Kind of series: SafetyScreen44 271110. The series is classed as binding. The conditions noted are these: 10 μM; [3H]8-OH-DPAT; recombinant. The protocol: (§1) A broad screen of 44 molecular targets (SafetyScreen44, Eurofins-Panlabs) for Ariadne were performed, which includes G protein-coupled receptors, steroid nuclear receptors, ion channels, neurotransmitter transporters, and metabolic and signaling enzymes. Only two molecular targets, 5-HT2A and 5-HT2B receptors, emerged above the positive hit threshold, defined as 50% displacement of standard radioligands by 10 uM concentration of Ariadne (FIG. 1b, and Table 1).
(§2) For species, “H”=human, “R”=rat. Test compound screened at all targets at concentration of 10 μM.

For the next series, the system named is humans. The conditions noted are these: in vivo; cited from earlier work.
The next series deals with T2, Androgen (Testosterone) (Homo sapiens, UniProt P10275, T878A).
T2 construct: Eurofins-Panlabs (contract screen) 206000
Kind of series: SafetyScreen44 206000. The series is classed as binding. The conditions noted are these: 10 μM; [3H]Methyltrienolone; LNCaP clone FGC cells. Here is the method: as §1, §2

The target of another series is T3, Adrenergic alpha1A (Homo sapiens, UniProt P35348).
T3 construct: Eurofins-Panlabs (contract screen) 203110
Kind of series: SafetyScreen44 203110. The series is classed as binding. The conditions noted are these: 10 μM; [3H]Prazosin; recombinant. The protocol: as §1, §2

In another series the target is T4, Cannabinoid CB2 (Homo sapiens, UniProt P34972).
T4 construct: Eurofins-Panlabs (contract screen) 217100
Kind of series: SafetyScreen44 217100. It counts as binding. The conditions noted are these: 10 μM; [3H]WIN-55, 212-2; recombinant. Here is the method: as §1, §2

A further series concerns Sodium Channel, Site 2. Kind of series: SafetyScreen44 279510. It counts as binding, human. The conditions noted are these: 10 μM; [3H]Batrachotoxinin; recombinant. Here is the method:
as §1, §2

In series [2] the target is T5, Nicotinic Acetylcholine alpha4beta2, Cytisine (Homo sapiens, UniProt P17787+P43681).
T5 construct: purchased Eurofins-Panlabs (contract screen SafetyScreen44) assay ID 299031
Kind of series: SafetyScreen44 299031. It counts as binding. The conditions noted are these: 10 μM; [3H]Cytisine; recombinant. The protocol:
as §1, §2

Series [3] concerns the target T6, Cholinesterase, Acetyl, ACES (Homo sapiens, UniProt P22303).
T6 construct: Eurofins-Panlabs (contract screen) 104010
Kind of series: SafetyScreen44 104010. The conditions noted are these: 10 μM; substrate Acetylthiocholine; recombinant. It counts as biochemical. The protocol:
as §1, §2

The target of the next series is T7, Opiate μ (OP3, MOP) (Homo sapiens, UniProt P35372).
T7 construct: purchased Eurofins-Panlabs (contract screen SafetyScreen44) assay ID 260410
Kind of series: SafetyScreen44 260410. It counts as binding. The conditions noted are these: 10 μM; [3H]Diprenorphine; recombinant. Here is the method:
as §1, §2

Series [4] has as its target T8, Serotonin (5-Hydroxytryptamine) 5-HT3 (Homo sapiens, UniProt P46098).
T8 construct: purchased Eurofins-Panlabs (contract screen SafetyScreen44) assay ID 271910
Kind of series: SafetyScreen44 271910. The series is classed as binding. The conditions noted are these: 10 μM; [3H]GR-65630; recombinant. The protocol: as §1, §2

The target of a further series is T9, Cyclooxygenase COX-2 (Homo sapiens, UniProt P35354).
T9 construct: Eurofins-Panlabs (contract screen) 118030
Kind of series: SafetyScreen44 118030. The conditions noted are these: 10 μM; Arachidonic acid; recombinant. The series is classed as biochemical. The protocol:
as §1, §2

A further series has as its system mice. Kind of series: Elevated plus maze (EPM). It counts as in vivo, mouse. The conditions noted are these: 30 minutes and 4 hours post single s.c. injection. The protocol: FIGS. 7A-D Effect of Ariadne in behavioral conflict paradigms. (a) Survival plot of effect of (R)-Ariadne (10 mg/kg) on latency to feed in the novelty suppressed feeding (NSF) test 7 days post a single drug administration. (b) Effect of 6 mg/kg and 10 mg/kg (R)-Ariadne on latency to feed in the novelty suppressed feeding (NSF) test 7 days post a single drug administration. (c) Effect of (R)-Ariadne and (±)-DOPR on the time spent in the open vs closed arms and (d) corresponding arm entries 30 minutes and 4 hours post a single subcutaneous injection.

For a further series, the target named is 5-HT2B (Homo sapiens, UniProt P41595). Kind of series: Calcium flux assay. The series is classed as cell-based. The conditions noted are these: read-out: Emax relative to 5-HT, calcium flux. (Calcium flux is commonly read through the fluorescence of an indicator in the cells.)
Sequence of 5-HT2B (P41595 whole entry): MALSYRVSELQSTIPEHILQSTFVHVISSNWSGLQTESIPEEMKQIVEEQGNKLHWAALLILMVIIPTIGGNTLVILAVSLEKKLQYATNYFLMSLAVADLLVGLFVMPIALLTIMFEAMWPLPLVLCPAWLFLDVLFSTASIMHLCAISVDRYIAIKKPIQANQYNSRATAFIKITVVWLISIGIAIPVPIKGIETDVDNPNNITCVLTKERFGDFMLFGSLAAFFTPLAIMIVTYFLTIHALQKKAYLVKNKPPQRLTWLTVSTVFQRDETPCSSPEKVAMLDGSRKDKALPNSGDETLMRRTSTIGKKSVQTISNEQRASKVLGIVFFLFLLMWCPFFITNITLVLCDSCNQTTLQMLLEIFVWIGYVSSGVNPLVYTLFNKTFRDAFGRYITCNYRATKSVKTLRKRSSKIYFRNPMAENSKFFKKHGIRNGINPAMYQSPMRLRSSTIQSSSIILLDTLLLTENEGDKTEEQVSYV

T1 sequence (P08908 whole entry): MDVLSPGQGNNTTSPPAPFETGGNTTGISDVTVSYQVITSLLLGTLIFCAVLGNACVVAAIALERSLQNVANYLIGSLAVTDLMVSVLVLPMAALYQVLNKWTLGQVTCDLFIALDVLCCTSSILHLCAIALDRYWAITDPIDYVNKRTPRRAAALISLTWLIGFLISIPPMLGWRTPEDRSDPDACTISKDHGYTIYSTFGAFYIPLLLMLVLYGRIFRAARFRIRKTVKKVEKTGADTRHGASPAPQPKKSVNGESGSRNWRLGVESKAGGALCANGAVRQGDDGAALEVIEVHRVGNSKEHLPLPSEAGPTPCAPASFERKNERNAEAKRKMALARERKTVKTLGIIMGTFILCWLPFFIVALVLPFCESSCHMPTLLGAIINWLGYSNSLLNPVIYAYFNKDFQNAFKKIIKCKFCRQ
T9 sequence (P35354 18-604): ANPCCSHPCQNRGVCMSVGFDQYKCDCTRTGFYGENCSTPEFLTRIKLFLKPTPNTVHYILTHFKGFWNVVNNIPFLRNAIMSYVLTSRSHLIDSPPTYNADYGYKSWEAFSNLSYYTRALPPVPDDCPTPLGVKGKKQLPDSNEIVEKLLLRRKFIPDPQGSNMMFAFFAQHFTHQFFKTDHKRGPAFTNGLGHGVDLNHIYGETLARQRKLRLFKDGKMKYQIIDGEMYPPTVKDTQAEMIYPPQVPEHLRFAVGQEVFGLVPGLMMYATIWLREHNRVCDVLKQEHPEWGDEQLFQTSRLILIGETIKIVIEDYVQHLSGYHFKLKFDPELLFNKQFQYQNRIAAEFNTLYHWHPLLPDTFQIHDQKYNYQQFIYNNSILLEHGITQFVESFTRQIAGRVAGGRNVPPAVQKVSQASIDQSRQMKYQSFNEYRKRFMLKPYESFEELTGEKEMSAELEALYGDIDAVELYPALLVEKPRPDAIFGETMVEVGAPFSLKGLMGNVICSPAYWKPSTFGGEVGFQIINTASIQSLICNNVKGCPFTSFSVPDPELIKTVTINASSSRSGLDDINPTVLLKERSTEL
T8 sequence (P46098 24-478): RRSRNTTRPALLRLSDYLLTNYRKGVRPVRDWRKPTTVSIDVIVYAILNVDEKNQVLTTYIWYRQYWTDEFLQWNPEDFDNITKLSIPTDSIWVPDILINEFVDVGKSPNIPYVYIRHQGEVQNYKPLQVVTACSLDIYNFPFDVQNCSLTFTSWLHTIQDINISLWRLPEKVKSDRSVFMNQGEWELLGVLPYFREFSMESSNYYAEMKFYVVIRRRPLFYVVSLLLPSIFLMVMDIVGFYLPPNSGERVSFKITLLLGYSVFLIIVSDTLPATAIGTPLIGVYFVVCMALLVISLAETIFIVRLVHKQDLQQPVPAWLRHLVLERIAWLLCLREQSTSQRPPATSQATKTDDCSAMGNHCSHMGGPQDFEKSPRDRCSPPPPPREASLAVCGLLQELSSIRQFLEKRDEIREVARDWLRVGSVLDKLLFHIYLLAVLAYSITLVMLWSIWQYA
T4 sequence (P34972 whole entry): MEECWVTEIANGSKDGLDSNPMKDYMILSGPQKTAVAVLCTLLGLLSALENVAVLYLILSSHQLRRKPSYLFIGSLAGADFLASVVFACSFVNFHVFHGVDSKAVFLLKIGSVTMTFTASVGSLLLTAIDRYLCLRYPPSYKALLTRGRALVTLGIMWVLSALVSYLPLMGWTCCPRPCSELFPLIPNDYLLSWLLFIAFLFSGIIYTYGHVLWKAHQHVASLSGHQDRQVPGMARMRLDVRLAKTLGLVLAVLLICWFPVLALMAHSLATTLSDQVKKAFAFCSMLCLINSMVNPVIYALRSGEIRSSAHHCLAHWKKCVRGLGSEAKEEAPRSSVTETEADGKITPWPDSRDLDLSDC
T6 sequence (P22303 32-614): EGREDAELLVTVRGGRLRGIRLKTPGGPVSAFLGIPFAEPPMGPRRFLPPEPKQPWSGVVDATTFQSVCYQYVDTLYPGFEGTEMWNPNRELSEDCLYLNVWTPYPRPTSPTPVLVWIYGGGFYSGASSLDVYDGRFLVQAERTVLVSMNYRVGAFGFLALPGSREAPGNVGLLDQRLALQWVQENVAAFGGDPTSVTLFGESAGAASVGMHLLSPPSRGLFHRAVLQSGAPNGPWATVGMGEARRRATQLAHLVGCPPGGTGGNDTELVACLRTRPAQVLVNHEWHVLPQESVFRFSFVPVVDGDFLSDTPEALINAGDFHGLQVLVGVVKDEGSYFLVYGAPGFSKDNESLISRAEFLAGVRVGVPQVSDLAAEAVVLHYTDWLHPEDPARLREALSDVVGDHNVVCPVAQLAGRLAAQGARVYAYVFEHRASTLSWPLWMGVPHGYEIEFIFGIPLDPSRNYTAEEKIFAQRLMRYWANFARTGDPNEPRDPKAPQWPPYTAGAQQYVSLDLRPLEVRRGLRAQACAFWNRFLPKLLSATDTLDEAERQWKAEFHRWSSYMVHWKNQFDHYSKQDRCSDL
T5 sequence (P43681 29-627 limits assumed): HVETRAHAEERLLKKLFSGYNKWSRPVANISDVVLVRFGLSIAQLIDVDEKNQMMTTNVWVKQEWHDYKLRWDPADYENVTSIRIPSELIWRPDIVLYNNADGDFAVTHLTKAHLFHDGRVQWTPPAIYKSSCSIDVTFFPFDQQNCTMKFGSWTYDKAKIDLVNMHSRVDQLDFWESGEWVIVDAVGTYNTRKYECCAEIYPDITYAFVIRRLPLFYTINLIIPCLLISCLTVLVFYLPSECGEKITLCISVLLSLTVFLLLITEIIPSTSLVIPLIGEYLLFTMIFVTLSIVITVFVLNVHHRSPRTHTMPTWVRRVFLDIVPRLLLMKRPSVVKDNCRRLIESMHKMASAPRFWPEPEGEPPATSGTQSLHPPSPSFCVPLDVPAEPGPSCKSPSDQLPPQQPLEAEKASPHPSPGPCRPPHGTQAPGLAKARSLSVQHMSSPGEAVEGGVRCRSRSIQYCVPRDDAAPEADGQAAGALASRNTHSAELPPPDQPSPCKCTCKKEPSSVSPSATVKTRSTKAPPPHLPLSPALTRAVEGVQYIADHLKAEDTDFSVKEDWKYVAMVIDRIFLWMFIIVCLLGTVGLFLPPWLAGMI
T5 sequence (P17787 26-502): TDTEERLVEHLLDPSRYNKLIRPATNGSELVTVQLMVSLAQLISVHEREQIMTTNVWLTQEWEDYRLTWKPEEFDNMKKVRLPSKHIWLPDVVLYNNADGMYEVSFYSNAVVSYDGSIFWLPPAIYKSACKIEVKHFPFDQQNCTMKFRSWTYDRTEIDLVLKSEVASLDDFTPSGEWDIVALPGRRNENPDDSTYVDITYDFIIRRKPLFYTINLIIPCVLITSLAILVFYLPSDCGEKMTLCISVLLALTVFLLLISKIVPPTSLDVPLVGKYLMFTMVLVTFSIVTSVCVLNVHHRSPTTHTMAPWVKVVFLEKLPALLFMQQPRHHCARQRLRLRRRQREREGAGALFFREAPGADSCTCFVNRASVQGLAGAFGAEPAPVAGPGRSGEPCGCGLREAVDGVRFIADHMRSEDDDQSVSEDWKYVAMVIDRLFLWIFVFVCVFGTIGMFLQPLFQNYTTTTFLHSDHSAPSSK
T7 sequence (P35372 whole entry): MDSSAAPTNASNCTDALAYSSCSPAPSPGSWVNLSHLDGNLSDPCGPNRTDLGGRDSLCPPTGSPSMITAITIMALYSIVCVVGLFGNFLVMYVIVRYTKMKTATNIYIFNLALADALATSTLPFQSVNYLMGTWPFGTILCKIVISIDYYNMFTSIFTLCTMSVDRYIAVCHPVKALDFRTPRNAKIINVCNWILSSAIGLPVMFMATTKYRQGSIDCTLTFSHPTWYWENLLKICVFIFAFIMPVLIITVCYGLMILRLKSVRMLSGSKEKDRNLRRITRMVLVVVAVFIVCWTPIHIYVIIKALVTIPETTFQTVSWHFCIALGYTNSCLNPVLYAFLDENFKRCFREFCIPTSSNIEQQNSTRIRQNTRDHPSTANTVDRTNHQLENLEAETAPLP
T3 sequence (P35348 whole entry): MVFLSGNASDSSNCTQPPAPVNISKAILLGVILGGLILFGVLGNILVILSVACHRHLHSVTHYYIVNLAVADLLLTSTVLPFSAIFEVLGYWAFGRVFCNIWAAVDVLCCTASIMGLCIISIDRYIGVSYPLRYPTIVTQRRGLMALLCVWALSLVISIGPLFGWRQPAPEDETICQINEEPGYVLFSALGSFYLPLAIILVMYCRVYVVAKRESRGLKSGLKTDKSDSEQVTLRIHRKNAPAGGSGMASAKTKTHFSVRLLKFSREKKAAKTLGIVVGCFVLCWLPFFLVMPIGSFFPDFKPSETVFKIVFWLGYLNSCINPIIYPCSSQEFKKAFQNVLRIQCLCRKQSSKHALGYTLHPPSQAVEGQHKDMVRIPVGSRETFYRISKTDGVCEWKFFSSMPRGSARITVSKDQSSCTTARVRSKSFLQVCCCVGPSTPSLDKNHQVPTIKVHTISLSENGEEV
Description for 5-HT2B: Therefore, an orthogonal assay measuring calcium flux was also performed for the 5-HT2 receptors (Klein et al., 2020).

Consider `CCC(N)Cc1cc(OC)c(C)cc1OC` (racemic) [Compound 32, 1-(2,5-dimethoxy-4-methylphenyl)butan-2-amine], for which the “% Response” value in series [1] is 36%; on Androgen (Testosterone), −8%; on Adrenergic alpha1A it was 24%; on Cannabinoid CB2, −7%; in the series with Sodium Channel, Site 2, 47%; in series [2], −31%. The “% Response” value was 12% in series [3]; −11% on Opiate μ (OP3, MOP); −13% in series [4]; −2% on Cyclooxygenase COX-2. Also, the “hallucinogenic effects in humans” value with humans is “lack the hallucinogenic effects”.

One may read the Emax as the maximal effect, on the per cent scale that the assay sets. With `CC[C@@H](N)Cc1cc(OC)c(C)cc1OC` [(R)-Ariadne], the “entries and time spent in the open arms” value in the series on mice is “acute anxiogenic-like effect”. Further, at 5-HT2B, the Emax came out at 64%.

(Values after US20260021061A1, “ARIADNE AND ANALOGS FOR THE TREATMENT OF NEUROLOGICAL AND NEUROMUSCLAR DISORDERS” (priority 2022, published 2026).)
